The values that follow come from patent EP4464714A1, “SCREENING METHOD FOR CELL-REPELLING PEPTIDES” (Karlsruher Institut für Technologie, priority 2023, dated 2024).

Entries after “also recorded” stand apart in the source; their conditions may differ. Like-named read-outs stand apart in the source and are kept apart here.

The test system of experiment [1] is SW620 colorectal cancer cells expressing the TOP-GFP construct. The experiment can be described thus: High-throughput screening for cell repulsion/adhesion on a high-density peptide chip, fluorescence detection. The format is cell-based. The settings on record: incubated for 24 hours on the peptide chip; for cell adhesion / cell repulsion on peptide spots, measured by the strength of the fluorescent signal: 1×10^7 cells in 3 ml, 30 µm × 30 µm spots.

Experiment [2] shares this test system. The experiment is described as follows: Formation of cell patterns on alternating peptide patterns, continuous fluorescence detection (live cell imaging). Type of experiment: cell-based. The settings on record: patterns of 3 sp × 3 sp and 1 sp (30 µm); up to 24 hours of incubation; Fig. 10. An excerpt: The settlement of cells on alternating patterns of the cell-repellent and cell-adhesive peptides IAMTPPNATEASKPQ and FLCSLFAPVCLDRPI, respectively, were examined over time (Fig. 10). […] Peptide patterns in the form of the letters KI were made of squares of 3 sp × 3 sp. The cellular patterns are clearly distinguishable as long as the area of the cell-repellent peptide has a size of 30 µm in diameter (1 sp). To follow the formation of such cellular patterns, the behaviour of cells was examined over time (continuous fluorescence detection). Fig. 10b, 10c, 10d and 10e show the different states of the same chip fragment with cell-repellent peptides at different incubation times. Relatively quickly, in the first minutes after seeding, cells randomly distribute over the entire surface (Fig. 10b) and start to form clusters (Fig. 10c), which adhere to the bottom. After that, the cell clusters leave the area of peptides with cell repulsion (Fig. 10d). […]
On the day of incubation, cells were detached using Accutase followed by selection in serum-containing medium (DMEM). […] After 24 hours, the plates were either analysed using confocal microscopy or fixed.
For imaging of the cells, a Zeiss LSM800 confocal microscope was used. […] The microscopic slide was then transferred to a live cell incubation chamber (37°C) and observed via continuous fluorescence detection for a period of 24 hours.

Experiment [3] concerns CD44v6. The settings on record: human (1) background; Matzke-Ogi et al. 2016; cited from earlier work.
For a further experiment, the system named is pancreatic tumour. As to conditions: human (1) or murine (2) background; Matzke-Ogi et al. 2016; cited from earlier work.
The subject of experiment [4] is CD44v6. The settings on record: murine (2) background; Matzke-Ogi et al. 2016; cited from earlier work.

AIKNLPPPTKGQEGS: in experiment [1], the “cell adhesion / cell repulsion on peptide spots, measured by the strength of the fluorescent signal” value (“cell adhesion / cell repulsion” for short) was “strongest cell-repellent properties”. EVK: in experiment [1], the “cell adhesion / cell repulsion” value is listed as “repellent motif for cells”. In the case of FLCSLFAPVCLDRPI, in experiment [2], the “settlement of cells on alternating peptide patterns over time” value is on record as “cell-adhesive”.

Consider HPGSAVSASNAIKNL, for which, in experiment [1], the “cell adhesion / cell repulsion” value is recorded as “strongest cell-repellent properties”. Take IAMTPPNATEASKPQ: the “settlement of cells on alternating peptide patterns over time” value in experiment [2] is “cell-repellent”.

Regarding KENGDKKIVPKKKKP, the “cell pattern (filling of peptide spots)” value in experiment [1] (Fig. 2) is on record as “well-defined island shape”. Regarding KEQWFGNRWHEGYR, the “co-receptor function of CD44v6 of the receptor tyrosine kinase MET” value (shortened to “co-receptor function”) in the experiment with CD44v6 [3] is listed as “inhibit the co-receptor function of CD44v6”. In the experiment on pancreatic tumour, the “pancreatic tumour growth and metastasis” value was “inhibit pancreatic tumour growth and metastasis”. In the case of NGWQG, in the experiment on CD44v6 [4], the “co-receptor function” value is “inhibit the co-receptor function of CD44v6”. For the same substance, in the experiment with pancreatic tumour, the “pancreatic tumour growth and metastasis” value is “inhibit pancreatic tumour growth and metastasis”. In the case of NRWHE, the “co-receptor function” value in the experiment with CD44v6 [3] is “inhibit the co-receptor function of CD44v6”. In addition, in the experiment on pancreatic tumour, the “pancreatic tumour growth and metastasis” value is “inhibit pancreatic tumour growth and metastasis”. On to PCQRETPEGAEAKP [SEQ ID No. 13], for which the “cell adhesion / cell repulsion” value in experiment [1] is reported as “repulsive”.

For the substance QETWF, the “cell adhesion / cell repulsion” value in experiment [1] is “top ten cell-repellent peptides”. For “QETWFQNGNQGKN [modified peptide of …, replacement of the amino acid W by N]”, in experiment [1], the “cell adhesion / cell repulsion” value is given as “maximum cell repulsion”. Regarding QETWFQNGWQGKNP, the “co-receptor function” value in the experiment on CD44v6 [4] is recorded as “inhibit the co-receptor function of CD44v6”. Moreover, the “pancreatic tumour growth and metastasis” value in the experiment on pancreatic tumour is “inhibit pancreatic tumour growth and metastasis”. As to QNGNQGKN, the “cell adhesion / cell repulsion” value in experiment [1] is given as “strong cell repulsion”. On to SDKKPVAHVVANPQAE [SEQ ID No. 11], for which, in experiment [1], the “cell adhesion / cell repulsion” value is listed as “repulsive”. Regarding TPPNATEASKPQGTT, the “cell adhesion / cell repulsion” value in experiment [1] was “strongest cell-repellent properties”.

Regarding “YPYDVPDYA [HA epitope, reference compound]”, in experiment [1], the “cell adhesion / cell repulsion” value is listed as “strong cell-attractive; also recorded: highest adhesion to cells”.
